According to publication PMC3006138, “Fexinidazole – A New Oral Nitroimidazole Drug Candidate Entering Clinical Development for the Treatment of Sleeping Sickness” (PLoS Neglected Tropical Diseases, 2010):

Columns and labels:
[1] = test system: T. b. brucei GVR35; assay: Chronic (stage 2) infection mouse model; assay type: in vivo
Experimental: Female NMRI mice were infected via intraperitoneal injection with bloodstream forms of T. b. rhodesiense STIB900 or T. b. gambiense 130R and treated with test drugs daily for 4 consecutive days, starting on day 3 or 7 after infection, respectively, or with bloodstream forms of T. b brucei GVR35 and treated daily from day 21 after infection for 5 days. Parasitemia was evaluated by tail blood examination and surviving, aparasitaemic mice at 60, 90, or 180 days, respectively, were considered cured.

[2] = in vitro; conditions: human
Experimental: Caco-2 [36] or MDR1-MDCK (Madin Darby canine kidney cells transfected with the human multidrug resistance MDR1 gene) cell monolayers were grown to confluence on collagen-coated, microporous, polycarbonate membranes in 12-well microtitre plates. The buffer for the donor chamber was Hanks balanced salt solution with 10 mM HEPES and 15 mM glucose at pH 7.4. The buffer in the receiver chamber contained the same with the addition of 1% bovine serum albumin (BSA). The test article was added at 5 µM in the assay buffer. […] After 2 h, duplicate aliquots were taken from the donor and receiver chambers and assayed via LC/MS. The apparent permeability and recovery were calculated using standard methods.
The objective of this study was to determine the bi-directional Caco-2 permeability and efflux limited absorption poten tial of thr ee test compoun ds. […]
4 . […] Th e test compound dosing concentrations were 5 µM in th e a ssay bu f fer . […] After two hours, a l iquot s wer e t a ken fr om th e r ecei ver an d don or cha m ber s. E a ch det erm ina ti on wa s per for m ed in dupl i cat e. Th e Lucifer Yellow flux was also measur ed for each mon olayer after bein g subjected to th e test compoun ds to en sur e n o damage was in flicted to th e cell mon olayer s durin g th e flux per iod. All samples wer e assayed by LC/MS/MS usin g electrospray ionization. Analytical conditions are outlined in Attachment I. The apparent permeability, Papp, and per cen t r ecover y wer e calculated as follows:
Papp = (dCr /dt) x Vr/(AxC) (1)
P er cen t Rec o ver y = 1 0 0 x ( ( V r x C rfi n a l ) + (Vd x Cd fi n a l ))/(Vd x C N) (2) […]
dCr /dt is th e slope of th e cumulative con cen tration in th e r eceiver compartment ver sus time in µM s -1. […]

[3] = set-up: method as in study 0339-2007; conditions: 7-day repeated toxicity study, top dose 2000 mg/kg, ref study 0339-2007; cited from earlier work
[4] = Respiratory safety (plethysmography); conditions: single oral dose
Experimental: Respiratory parameters were assessed in the rat [42]. Groups of eight male rats (Crl:CD(SD)BR), aged about 8 weeks on the day of dosing, were administered doses of 100, 300, or 1000 mg/kg of fexinidazole by oral gavage. A predetermined standard set of respiratory parameters was acquired continuously from individual animals housed in plethysmographic chambers. […] After treatment, values were extracted every 30 min up to 4 h. Body weights were recorded on the day of treatment for calculation of dose volumes and for calculation of tidal and minute volumes per kg of body weight.
On the day of dosing, animals were placed in individual plethysmographic chambers. After
an acclimation period of at least 1 hour, and once respiratory parameters had stabilized,
recording of respiratory signals was started and basal data were recorded for at least 30
minutes. Animals were taken from the chambers, orally dosed and placed again in the
chambers for at least 4 hours. […]
the time point was not extracted. Basal values were calculated as the mean of values […]
were extracted every 30 minutes up to 4 hours. The following parameters were calculated […]
− Minute volume (MV, mL/kg/min calculated as TV*f)
− Enhanced Pause (Penh, calculated as ((ET/RT)-1)*(PEF/PIF))
Body weight (grams) was recorded on the day of treatment for calculation of dose volumes […]

Q: Which results are given for `CSc1ccc(OCc2ncc([N+](=O)[O-])n2C)cc1` [Fexinidazole, 1-methyl-2-((p-(methylthio)phenoxy)methyl)-5-nitroimidazole]?
A: Cured/infected ([1]; 50 mg/kg×5 days po): 0/8; Mean relapse time ([1]; 50 mg/kg×5 days po): 41.3 days; cure ([1]; 100 mg/kg twice per day for 5 days po, groups of 5 mice, two independent experiments): 100%; Cured/infected ([1]; 100 mg/kg×5 days po): 2/8; Mean relapse time ([1]; 100 mg/kg×5 days po): >82.1 days; Cured/infected ([1]; 200 mg/kg×5 days po): 7/8; Mean relapse time ([1]; 200 mg/kg×5 days po): >163.8 days; Papp A→B at 2 h, 5 µM ([2]; Caco-2, pH 7.4): 57.2 ×10⁻⁶ cm/s; Papp B→A at 2 h, 5 µM ([2]; Caco-2, pH 7.4): 50.9 ×10⁻⁶ cm/s; efflux ratio at 2 h, 5 µM ([2]; Caco-2, pH 7.4): 0.9; recovery at 2 h, 5 µM ([2]; Caco-2, pH 7.4, Percent Recovery A→B): 72%; recovery at 2 h, 5 µM ([2]; Caco-2, pH 7.4, Percent Recovery B→A): 81%; tolerability [3]: well tolerated; NOEL on respiratory parameters [4]: 1000 mg/kg
